molecular target: human PDHK2 (12-407) (Homo sapiens (Human), UniProt Q15119); assay: Isothermal titration calorimetry (ITC); details: 30° C., pH 7.5; read-out: Binding (ITC) KD
Protocol: Isothermal Titration Calorimetry
ITC measurements were performed with a VP-ITC micro calorimeter (Microcal, LLC/GE Healthcare Bio-Sciences AB, Uppsala, Sweden). In general titrations were performed by titrating the protein (50 μM) to the test compound (5 μM) in 12 μl injections. All binding experiments were carried out at 30° C. In general the test compounds were diluted form DMSO stock solutions into the measurement buffer with a maximum final concentration of 1% DMSO. The measurement buffer was 20 mM HEPES, 135 mM KCl, 1 mM TCEP, 2 mM MgCl2, 15 mM NaH2PO4, pH 7.5. The human PDHK2 (12-407) was produced in E. coli as his-tagged protein and purified by affinity chromatography. The tag was removed by side specific proteolysis. Before titration the protein buffer was changed to the measurement buffer containing the same DMSO concentration as the test compound dilution. ITC data analysis was performed using Origin 7 calorimetry software from the same supplier. For most measurements a binding model of one binding site was assumed. According to the applied mathematical model it is possible to calculate the binding constant (KA), the observed binding enthalpy (ΔH^obs) as well as the stoichiometry (N) of the formed complex. Preceding analysis the raw data was corrected for the heats of dilution by extrapolating from the saturation value from the end of titration. In order to allow for direct comparison between the respective experimental series and protein preparations the protein concentration was corrected by referencing titrations to a well behaved standard inhibitor. The apparent stoichiometry values defined the fraction of binding competent protein and compensated for relative errors in protein concentration measurements. This corrected protein concentration was used to set up ITC experiment series with test compounds. Any deviations from ideal 1:1 stoichiometry observed here were attributed to errors in compound concentration. This nominal compound concentration was corrected as well to achieve 1:1 stoichiometry in the fit.

Row | Compound | Kd [µM]
1 | CN(C(=O)C1CCN(C(=O)[C@@](C)(O)C(F)(F)F)CC1)c1ccc(C#N)cc1 [Compound A4, 1-((R)-3,3,3-Trifluoro-2-hydroxy-2-methyl-propionyl)-piperidine-4-carboxylic acid (4-cyano-phenyl)-methyl-amide] | 0.21
2 | Cc1ccc(N(C)C(=O)[C@@H]2CCN(C(=O)[C@@](C)(O)C(F)(F)F)C[C@@H]2C)c(F)c1 [Compound A14, (3R,4R)—N-(2-fluoro-4-methylphenyl)-N,3-dimethyl-1-[(2R)-3,3,3-trifluoro-2-hydroxy-2-methylpropanoyl]piperidine-4-carboxamide] | 5

molecular target: PDHK2 (Homo sapiens (Human), UniProt Q15119); assay: Biochemical activity testing of PDHK2: PDC inactivation assay; details: human rec PDHK2, 5 μM ATP, read-out: IC50 PDHK2 (enzyme assay)
From the text: Biochemical Activity Testing of PDHK2: PDC Inactivation Assay
The biochemical activity assay for PDHK2 is based on the inactivation of PDC through phosphorylation by PDHK2. The assay is run in two steps: the enzymatic PDHK2 reaction in which isolated PDC is phosphorylated by PDHK2 with ATP as co-substrate and the PDC activity assay in which pyruvate and NAD are converted to acetyl-CoA and NADH. The PDC activity correlates to the increase in NADH and thereby is detectable directly via the increasing fluorescence signal (Exc 340 nm, Em 450 nm). Inhibition of PDHK2 results in a lower phosphorylation status and thereby a less decrease in activity of PDC and a stronger increase in NADH fluorescence signal.
The PDC inactivation assay is performed in Greiner 384-well microtiter plates and is used for high throughput screen. 4 μl of PDHK2 (human, rec, Carna Bioscience, 10 ng/μl-137 nM final concentration) and PDC (isolated from porcine heart, Sigma-Aldrich, 20 mU/ml final concentration) are incubated in the absence or presence of the test compound (10 dilution concentrations) for 30 min at room temperature in kinase buffer (15 mM potassium phosphate buffer, pH 7.0, 60 mM KCl, 1.5 mM DTT, 2.5 mM MgCl2, 0.0125% (w/v) BSA, 0.125% Pluronic F-68). The kinase reaction is started by the addition of 4 μl ATP substrate solution (fc 5 μM in kinase buffer). After 30 min incubation at 37° C. 40 μl of PDC reaction solution (100 mM Tris/HCl, pH 7.8, 0.5 mM EDTA, 1 mM MgCl2, 50 mM NaF, 0.25 mM Coenzyme A, 5 mM pyruvate, 1 mM NAD, 5 mM DTT, 1 mM thiamine pyrophosphate) is added. The first fluorescence measurement is performed on a Perkin Elmer Envision (Exc 340 nm, Em 450 nm). The reaction is incubated for 45 min at room temperature. Afterwards a second fluorescence measurement is performed and the PDC activity is calculated by the difference between both measurements. As full value for the PDHK2 assay the inhibitor-free PDHK2 reaction is used. The pharmacological zero value used is DCA (Sigma-Aldrich) in a final concentration of 3 mM. The inhibitory values (IC50) were determined using either the program Symyx Assay Explorer® or Condosseo® from GeneData.

Row | Compound | IC50 [µM]
3 | CN(C(=O)C1CCN(C(=O)[C@@](C)(O)C(F)(F)F)CC1)c1ccc(C#N)cc1 [Compound A4, 1-((R)-3,3,3-Trifluoro-2-hydroxy-2-methyl-propionyl)-piperidine-4-carboxylic acid (4-cyano-phenyl)-methyl-amide] | 1.5
4 | Cc1ccc(N(C)C(=O)[C@@H]2CCN(C(=O)[C@@](C)(O)C(F)(F)F)C[C@@H]2C)c(F)c1 [Compound A14, (3R,4R)—N-(2-fluoro-4-methylphenyl)-N,3-dimethyl-1-[(2R)-3,3,3-trifluoro-2-hydroxy-2-methylpropanoyl]piperidine-4-carboxamide] | 0.77
5 | Cc1ccc(N(C)C(=O)[C@@H]2CCN(C(=O)[C@@](C)(O)C(F)(F)F)C[C@@H]2C)cc1 [Compound A8, (3R,4R)—N,3-Dimethyl-N-(4-methylphenyl)-1-[(2R)-3,3,3-trifluoro-2-hydroxy-2-methylpropanoyl]piperidine-4-carboxamide] | 5.1
6 | C[C@H]1CN(C(=O)[C@@](C)(O)C(F)(F)F)CC[C@H]1N(C)C(=O)c1ccc(F)cc1 [Compound A30, 4-Fluoro-N-methyl-N-[(3S,4R)-3-methyl-1-[(2R)-3,3,3-trifluoro-2-hydroxy-2-methylpropanoyl]piperidin-4-yl]benzamide] | 7.9
7 | Cc1ccc(C(=O)N(C)[C@@H]2CCN(C(=O)[C@@](C)(O)C(F)(F)F)C[C@@H]2C)cc1 [Compound A25, N,4-Dimethyl-N-[(3S,4R)-3-methyl-1-[(2R)-3,3,3-trifluoro-2-hydroxy-2-methylpropanoyl]piperidin-4-yl]benzamide] | 2.7
8 | C[C@H]1CN(C(=O)[C@@](C)(O)C(F)(F)F)CC[C@H]1N(C)C(=O)c1ccc(F)cc1F [Compound A39, 2,4-Difluoro-N-methyl-N-[(3S,4R)-3-methyl-1-[(2R)-3,3,3-trifluoro-2-hydroxy-2-methylpropanoyl]piperidin-4-yl]benzamide] | 4.9
9 | COc1ccc(C(=O)N(C)[C@@H]2CCN(C(=O)[C@@](C)(O)C(F)(F)F)C[C@@H]2C)cc1 [Compound A36, 4-Methoxy-N-methyl-N-[(3S,4R)-3-methyl-1-[(2R)-3,3,3-trifluoro-2-hydroxy-2-methylpropanoyl]piperidin-4-yl]benzamide] | 1.3
10 | C[C@H]1CN(C(=O)[C@@](C)(O)C(F)(F)F)CC[C@H]1C(=O)N(C)c1ccc(Cl)cc1 [Compound A11, (3R,4R)—N-(4-chlorophenyl)-N,3-dimethyl-1-[(2R)-3,3,3-trifluoro-2-hydroxy-2-methylpropanoyl]piperidine-4-carboxamide] | 3.8
11 | C[C@H]1CN(C(=O)[C@@](C)(O)C(F)(F)F)CC[C@H]1N(C)C(=O)c1ccccc1 [Compound A33, N-Methyl-N-[(3S,4R)-3-methyl-1-[(2R)-3,3,3-trifluoro-2-hydroxy-2-methylpropanoyl]piperidin-4-yl]benzamide] | 3.4
12 | C[C@H]1CN(C(=O)[C@@](C)(O)C(F)(F)F)CC[C@H]1N(C)C(=O)c1ccc(Cl)cc1 [Compound A22, 4-Chloro-N-methyl-N-[(3S,4R)-3-methyl-1-[(2R)-3,3,3-trifluoro-2-hydroxy-2-methylpropanoyl]piperidin-4-yl]benzamide] | 5.9
13 | CC1CN(C(=O)[C@@](C)(O)C(F)(F)F)CCC1C(=O)N(C)c1ccc(C(F)(F)F)cc1Cl (stereo partly drawn) [Compound A15, N-[2-chloro-4-(trifluoromethyl)phenyl]-N,3-dimethyl-1-[(2R)-3,3,3-trifluoro-2-hydroxy-2-methylpropanoyl]piperidine-4-carboxamide] | 1.7

Now from value to compound:

Row | IC50 [µM] | Compound
14 | 13 | C[C@H]1CN(C(=O)[C@@](C)(O)C(F)(F)F)CC[C@H]1N(C)C(=O)c1ccc(F)cn1 [Compound A54, 5-Fluoro-N-methyl-N-[(3S,4R)-3-methyl-1-[(2R)-3,3,3-trifluoro-2-hydroxy-2-methylpropanoyl]piperidin-4-yl]pyridine-2-carboxamide]
15 | 3.9 | C[C@H]1CN(C(=O)[C@@](C)(O)C(F)(F)F)CC[C@H]1N(C)C(=O)c1ccc(Cl)cc1F [Compound A60, 4-Chloro-2-fluoro-N-methyl-N-[(3S,4R)-3-methyl-1-[(2R)-3,3,3-trifluoro-2-hydroxy-2-methylpropanoyl]piperidin-4-yl]benzamide]
16 | 27 | C[C@H]1CN(C(=O)[C@@](C)(O)C(F)(F)F)CC[C@H]1N(C)C(=O)c1ccc(C#N)cc1 [Compound A45, 4-Cyano-N-methyl-N-[(3S,4R)-3-methyl-1-[(2R)-3,3,3-trifluoro-2-hydroxy-2-methylpropanoyl]piperidin-4-yl]benzamide]
17 | 2.9 | C[C@H]1CN(C(=O)[C@@](C)(O)C(F)(F)F)CC[C@H]1N(C)C(=O)c1ccc(C(F)(F)F)cc1 [Compound A63, N-Methyl-N-[(3S,4R)-3-methyl-1-[(2R)-3,3,3-trifluoro-2-hydroxy-2-methylpropanoyl]piperidin-4-yl]-4-(trifluoromethyl)benzamide]
18 | 2.4 | C[C@H]1CN(C(=O)[C@@](C)(O)C(F)(F)F)CC[C@H]1N(C)C(=O)c1ncc(F)cc1F [Compound A42, 3,5-Difluoro-N-methyl-N-[(3S,4R)-3-methyl-1-[(2R)-3,3,3-trifluoro-2-hydroxy-2-methylpropanoyl]piperidin-4-yl]pyridine-2-carboxamide]
19 | 19 | C[C@H]1CN(C(=O)[C@@](C)(O)C(F)(F)F)CC[C@H]1N(C)C(=O)c1cnn(C)c1 [Compound A57, N,1-Dimethyl-N-[(3S,4R)-3-methyl-1-[(2R)-3,3,3-trifluoro-2-hydroxy-2-methylpropanoyl]piperidin-4-yl]-1H-pyrazole-4-carboxamide]
20 | 3.6 | C[C@H]1CN(C(=O)[C@@](C)(O)C(F)(F)F)CC[C@H]1N(C)C(=O)c1ccc(F)cc1Cl [Compound A51, 2-Chloro-4-fluoro-N-methyl-N-[(3S,4R)-3-methyl-1-[(2R)-3,3,3-trifluoro-2-hydroxy-2-methylpropanoyl]piperidin-4-yl]benzamide]
21 | 2.4 | C[C@H]1CN(C(=O)[C@@](C)(O)C(F)(F)F)CC[C@H]1N(C)C(=O)c1ccc(C(F)(F)F)cc1F [Compound A48, 2-Fluoro-N-methyl-N-[(3S,4R)-3-methyl-1-[(2R)-3,3,3-trifluoro-2-hydroxy-2-methylpropanoyl]piperidin-4-yl]-4-(trifluoromethyl)benzamide]
